Test results published in a melting point compilation (Tetko et al.).

Structure (SMILES)	melting point [°C]
CC(=O)c1cc(F)c(Cl)cc1Cl	35
N#CCCn1c(=O)oc2ccccc21	118 to 120
Clc1cc2oc3c(Cl)c(Cl)ccc3c2c(Cl)c1Cl	206
CC(C)CC(N)CC(=O)O (stereo unspecified)	249 to 250
C/C(CCc1oc2ccc(C)cc2c1-c1ccc(C)o1)=N/O	103 to 104
Cc1ccc(S(=O)(=O)Cl)cc1[N+](=O)[O-]	38 to 40
O=C(O)C1(c2ccc(Cl)cc2Cl)CC1	140 to 147
O=C(N[C@@H](Cc1ccc(Br)cc1)C(=O)O)OCC1c2ccccc2-c2ccccc21	152
COC(=O)c1cc(C)n(CO)n1	89
CC(=O)N1N=C(c2ccc3ccccc3c2)CC1c1ccccc1Cl (stereo unspecified)	173
O=C(NC(Cc1cccs1)C(=O)O)OCC1c2ccccc2-c2ccccc21 (stereo unspecified)	169
Nc1ccc(C=CC(=O)O)cc1	122
c1ccc2cc3c(ccc4cc5ccccc5cc43)cc2c1	257
CCCCNC(=O)OCC(C)(CCC)COC(N)=O (stereo unspecified)	50
CCCCCCCCOc1ccc(C=O)cc1OCCCCCCCC	54 to 56
C/C(CCc1oc2ccc([N+](=O)[O-])cc2c1-c1ccc(C)o1)=N/O	160 to 161
O=CC(O)C1OC(=O)C(O)C1O (stereo unspecified)	178
COc1ccc(N=C=S)c(OC)c1	52
N#CCc1c[nH]c2ccccc12	36
O=C1NCC(CCl)O1 (stereo unspecified)	101 to 105
O=C(CBr)c1ccc2c(c1)OCCCO2	78 to 80
FC(F)(F)c1ccc(Cl)c(C(F)(F)F)c1	-59
C=C1C2CCC3C(CCC4C5(C)CCCC43C3OCCN3C5)(C2)C1O (stereo unspecified)	120
CS(=O)(=O)c1ccc(OC(F)(F)F)cc1	67
FC(F)(F)C(F)(F)C(F)(F)C(F)(F)C(F)(F)C(F)(F)C(F)(F)F	-78
COc1ccccc1C=C(C(=O)O)c1ccccc1	158

Structure (SMILES)	melting point [°C]
Cn1c(=O)c(C2=NNC(=O)C2=CNc2nccs2)c(O)c2ccccc21	248
CN(C)c1ccc(/C=N/n2c(S)nnc2C(F)(F)F)cc1	200
O=c1[nH]c(=O)n(C2CCC(CO)O2)cc1Br (stereo unspecified)	180
Cc1cc(C)c(C)c(CO)c1C	112
Nc1nccnc1C(=O)O	201 to 205
O=C(O)c1ccc(F)c(F)c1	122 to 125
O=C(OCCCl)OCCCl	8
CC(Br)C(C)(C)Br (stereo unspecified)	11
CCC(C(=O)Nc1ccc(C)cc1)c1ccc(C)cc1 (stereo unspecified)	118
Cn1c(=O)c(C2=NNC(=O)C2=NNc2ccccc2)c(O)c2ccccc21	213
CC12CCC(C(C(=O)c3cccc4ccccc34)C1=O)C2(C)C (stereo unspecified)	104
O=C(c1ccccc1)c1noc(-c2ccc([N+](=O)[O-])cc2)c1S(=O)(=O)c1ccccc1	165
COP(=O)(OC)OC	-46
O=C(Cl)c1cc(-c2ccc(Cl)cc2)oc1C(F)(F)F	135 to 137
N#CCCn1cccc(C(F)(F)F)c1=O	88 to 90
CCOC(=O)CCC(NP(=O)(OC)C(C)NC(=O)CCCCN1C(=O)c2ccccc2C1=O)C(=O)OCC (stereo unspecified)	79 to 82
CCOC(=O)c1c(C)c(C(C)=O)c(C)n1C	61 to 62
Cc1ccc2[nH]cc(CC(N)C(=O)O)c2c1 (racemic)	280 to 282
O=C(O)CCc1ccc(Br)cc1	135
NS(=O)(=O)c1cccc(/C(=N\O)c2ccccc2)c1	155
O=C(O)CCc1ccc(F)cc1	90
Cc1n[nH]c(SCC#N)n1	158 to 160
C#Cc1ccc2nccnc2c1	98
CCC(C(=O)O)c1ccc(-c2ccccc2)cc1 (stereo unspecified)	124
CC(=O)OCC(=O)C1CCC2C3CC=C4CC(O)CCC4(C)C3CCC12C (stereo unspecified)	184
COC(=O)c1cc2cc3cc(C(=O)OC)c(C(=O)OC)cc3cc2cc1C(=O)OC	220

Structure (SMILES)	melting point [°C]
CSC(=Nc1nnc(-c2ccccc2)s1)SC	111 to 113
CC(C)CCCC(C)C1CCC2C3CC=C4C=CCCC4(C)C3CCC12C (stereo unspecified)	80
C#CCON1C(=O)c2ccccc2C1=O	149 to 152
ClCc1cc2cc(Br)ccc2o1	63 to 64
O=c1[nH]c2ccccc2c(-c2ccccc2)c1O	268
O=C(O)C1(c2ccccc2)CC1	87
CS(=O)(=O)c1ccc(C(=O)O)c(Cl)c1	194
O=Cc1ccc(CN2C(=O)c3ccccc3C2=O)o1	125 to 126
O=C(O)Cc1ccccc1Nc1c(Cl)cccc1Cl	157
OCCN(CCO)CCc1ccc(CSc2ccccc2)cc1	80
CC(/C=C(\C)c1ccc(C)cc1)=NNc1ccc([N+](=O)[O-])cc1[N+](=O)[O-]	182 to 184
Cc1c(NC(C)C)c(=O)n(-c2ccccc2)n1C	80
CC(C)=CCCC(C)=CCCC(C)=CCO	25
CC(C)(C)OC(=O)N1CCC(Oc2ccccc2[N+](=O)[O-])CC1	91 to 93
Ic1ccc(N(c2ccc(I)cc2)c2ccc(I)cc2)cc1	167
O=C(O)c1ccc(-c2cnco2)cc1	300 to 301
ClC(Cl)=C(c1ccc(Cl)cc1)c1ccc(Cl)cc1	89
CC(C)(C)c1cc2c(O)c(c1)Cc1cc(C(C)(C)C)cc(c1O)Cc1cc(C(C)(C)C)cc(c1O)Cc1cc(C(C)(C)C)cc(c1O)Cc1cc(C(C)(C)C)cc(c1O)Cc1cc(C(C)(C)C)cc(c1O)C2	300
COC(=O)C(Cl)C(Cl)c1cccc(C(Cl)C(Cl)C(=O)OC)c1 (stereo unspecified)	131
CNCC(O)c1ccc(O)c(O)c1 (stereo unspecified)	218
N#CC(O)c1ccccc1 (stereo unspecified)	-10
O=C(C1=NOC2C(=O)N(c3ccc(Br)cc3)C(=O)C12)c1ccco1 (stereo unspecified)	176
O=C(O)C#Cc1cc(Br)cc(/C=C/C(=O)O)c1	161
Clc1cc(Cl)nc(-c2ccccc2)n1	96.9
NS(=O)(=O)c1ccc(S(=O)(=O)CCO)cc1	165
N#Cc1ccnc(I)c1	79

Structure (SMILES)	melting point [°C]
NC(=S)c1ccc(C2SCCS2)cc1	174
CC(=O)c1ccn(S(=O)(=O)c2ccccc2)c1	89 to 92
CN(C)c1ccc(C2C(C#N)=C(N)SC(N)=C2c2nc3ccccc3s2)cc1 (stereo unspecified)	211
O=Cc1cc(I)ccc1F	44
O=C(O)Cc1cccc(F)c1F	118
COc1ccc(C2C(C#N)=C(N)Oc3c2c(C(F)(F)F)nn3-c2ccccc2)cc1 (stereo unspecified)	211
C=C[N+](=O)[O-]	-55.5
CC(C)N(C1=NC(=Cc2ccccc2)C(=O)N1c1ccccc1)C(C)C	167
O=CC(Br)=Cc1ccccc1	70
O=C1CCC(=O)CC1	78
C=C=Cn1cnc2c(N)ncnc21	186
Cc1ccccc1C=C1C(=O)OC(C)(C)OC1=O	142
Nc1ccc(Sc2ccc([N+](=O)[O-])cc2)cc1	144
O=c1ccc(=O)[nH][nH]1	306
COC(=O)c1cc([N+](=O)[O-])ccc1OC	101
Clc1ncnc2sc3c(c12)CCCC3	96
COc1ccc(CCC(=O)O)cc1	104
N#C/C(=C/c1cccc(O)c1)c1nc2ccccc2c(=O)[nH]1	294
Cn1c(=O)c(C2=NNC(=O)C2=CNc2ncccn2)c(O)c2ccccc21	279
Clc1cncc(Oc2ccc(Cl)nn2)c1	112 to 114
CC(=O)c1nc2ccccc2s1	109 to 112
c1ccc(-c2cccc3ccccc23)cc1	45
Cc1cccc(S)c1	-20
O=[N+]([O-])c1ccccc1N1CSc2nnc(-c3ccccc3)n2C1	> 300
Oc1ccc2ccc(O)cc2c1	193
C=CCSC(=O)n1c(N)c(-c2ccccc2C)c(=O)n1C(C)C	116

Structure (SMILES)	melting point [°C]
O=[N+]([O-])c1cc([N+](=O)[O-])c(Cl)cc1Cl	101
O=C(O)C=Cc1ccsc1	155 to 156
O=C(c1ccccc1)c1ccccc1NC(=O)[C@@H]1CCCN1Cc1ccccc1	100 to 103
COC(=N)C1=CC(O)C(O)C(CO)O1 (stereo unspecified)	196
O=C(O)CCOc1ccc(F)cc1	84 to 86
CCOC(=O)C(CCc1ccccc1)NC(C)C(=O)N1C(=O)N(C)CC1C(=O)O (stereo unspecified)	139
COc1ccc(-c2ccc(OC)cc2)cc1	177 to 181
COc1ccc(Br)c(C)c1C(=O)O	163
COC(=O)c1ccc(C(=O)Cl)cc1	53 to 59
NNC(=S)NCCN1CCCCC1	121 to 123
Sc1nccc(-c2ccco2)n1	200
FC(F)(F)COc1ccc(OCC(F)(F)F)cc1	76
O=C(O)C1(Cl)CC2C=CC1C2 (stereo unspecified)	139 to 141
COc1cc(OCc2ccccc2)ccc1C=O	96
CCCCc1nc(C=O)c(Cl)[nH]1	98 to 100
c1ccc2cc3cc4ccccc4cc3cc2c1	357
O=Cc1ccc(-c2ccccn2)cc1	51 to 53
O=C1OC(=O)c2c(F)cccc21	159 to 163
O=C(O)c1cccc(Cl)c1F	177
COC1=CC(c2ccccc2)c2ccccc21 (stereo unspecified)	68
COc1ccc(OC)c(/C=N/n2c(S)nnc2C(F)(F)F)c1	145
CCCCN(CCCC)C(C(N)=O)c1ccc(OC)cc1 (stereo unspecified)	134
